# Laboratory results reported in patent US8548786B2, “Neuronal avalanche assay” (priority 2005, dated 2013).
# How the values were obtained:
# [1] = system: acute somatosensory cortex slices; assay: Neuronal avalanche induction in acute somatosensory cortex slices; assay type: cell-based, rat; conditions: 3 μM SKF38393 + 3 μM NMDA
# [2] = system: acute slices of rat medial prefrontal cortex (mPFC); assay: Neuronal avalanche (NAS) assay, microelectrode array LFP recording in acute mPFC slices;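 also: 60-electrode array recordings, low-pass filtered at 200 Hz and sampled at 1 kHz, nLFPs detected below −3 SD of electrode noise, avalanches as runs of active bins between silent bins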
# Experimental: Continuous extracellular signals v(t) can be recorded between 0.1 Hz and 3000 Hz, low-pass filtered at 200 Hz (Butterfly-filter, Multichannel Systems), digitised at a rate of 1 kHz (Δt=1 ms) and stored. For each electrode k (k=[1, nelec], nelec=60), the electrode noise of v(t) can be estimated by calculating the mean and standard deviation (SD) of v(t) from the total duration of the recording, Ttot, which can range, for example, between 40-60 min. […] Negative LFP peaks (nLFPs) at electrode k can be detected by negative threshold crossing at −3 SD of electrode noise and can be characterized by the time and absolute amplitude of the negative LFP peak, A^k(ti), before v(t) returned to threshold. More precisely, at a given temporal resolution Δt, nLFPs at electrode k can be represented by a vector of length nmax, where nmax is an integer value for which Ttot=nmax·Δt. This vector can contain zeros, except for positions ti=i·Δt, iε[1, . . . , nmax,] with values A^k(ti) in μV.
# A neuronal avalanche is a sequence of consecutive time bins of width Δt with at least one nLFP, which is preceded and terminated by at least one time bin with no activity (FIG. 3A). The absence of activity for a period of Δt thus indicates the end of an avalanche. If the decision of whether an avalanche has ended is made too early (Δt too short), avalanches will be terminated prematurely; if the Δt chosen is too long, avalanches will be falsely concatenated. If avalanches did simply propagate like a wave, an approximation for Δt (Δtavg) could be obtained by averaging the time between one nLFP at one electrode and the next nLFP at neighbouring electrodes only. Because nLFPs in avalanches occur in irregular patterns across electrodes on the array, a pair wise approximation can be used in order to assess the average time that is required for nLFPs to propagate between electrodes.
# In order to calculate Δtavg, the distribution of time intervals T for successive nLFPs on the array can be obtained. Starting with the first nLFP, e.g. A^k(ti) on electrode k at time ti, the next occurrence of an nLFP on the array can be searched for, e.g. A^l(tj) on electrode l at time tj, and calculated the time interval Tm-Δt^k,l, where m=(tj−ti)/Δt. This process can be repeated for all occurrences of nLFPs on electrode k and for all electrodes. The resulting values can be combined into one density distribution P(TmΔt), which captures how often successive nLFPs occurred with a particular delay m·Δt on the array irrespective of their spatial location. Consequently, the average value of T provides an approximation for Δtavg, the average time to wait before making a decision whether an nLFP propagated on the array. However, this interval distribution is highly skewed, particularly when one compares the last nLFP with the first nLFP in successive avalanches that are separated by long times. In order to exclude time intervals from successive nLFPs that are barely correlated, a cut-off time τmax can be calculated for which the average crosscorrelation function (ccf) for pair wise electrode comparisons Rccf(τ) had decayed to negligible values. The ccf between electrodes k, l (Rccf^k,l(τ)) can be calculated as
# Because the exemplary maximal sampling rate was 1 kHz, the actual Δt^avg to calculate avalanches can be taken as the nearest multiple of Δt=1 ms. In short, after Δtavg was calculated for a particular network and experimental condition, the extracellular signals v(t) can be re-sampled at the new temporal resolution of Δtavg. Time and amplitude of nLFP peaks can be extracted as A^k(ti), where ti=i·Δtavg, iε[1, n′max] and Ttot=n′max·Δtavg. Avalanches can be determined on the downsampled data set at bin width Δtavg.
# Avalanche sizes can be calculated in two different ways (see also FIG. 3A).
structure (smiles),measurement,setting,value
Cl.Oc1cc2c(cc1O)C(c1ccccc1)CNCC2 (racemic) [SKF38393],avalanche induction and layer localisation,[1],induced neuronal avalanches primarily in superficial layers
same,average nLFP peak amplitude,[2]; 3 μM SKF38393 + 3 μM NMDA,6.62±0.01 mV
same,Δtavg,[2]; 3 μM SKF38393 + 3 μM NMDA,3.3±0.2
same,total activity at slope α ~−1.5 compared to dopamine,"[2]; 3 μM SKF38393 + 3 μM NMDA vs 30 μM dopamine, p=0.007",significantly reduced level of total activity compared to dopamine
same,slope αLFP after rescue by added NMDA,"[2]; 3 μM SKF38393 alone first, then 3 μM NMDA added",−1.55±0.07
same,induction of nLFPs or avalanches,"[2]; 3 μM SKF38393 alone, without NMDA",did not induce nLFPs or avalanches
same,slope α of avalanche size distribution,"[2]; SKF38393 higher or lower than 3 μM (0.3-300 μM range), + 3 μM NMDA",< −1.5
